The target of one data set is p53 DBD (Homo sapiens, UniProt P04637). As to conditions: cited from earlier work.
Data set [1] concerns SKBR3 cells expressing endogenous R175H p53. The conditions noted are these: SKBR3 ShCon cells, 5 ug/ml, 18 hours. How it is done:
FIG. 16 is a bar graph illustrating the effect of the indicated peptides on activation of Mut-p53 by measuring transactivation of p53 target genes as determined by qRT-PCR. SKBR3 ShCon cells and SKBR3 Shp53 cells knocked down for p53 expression were used. The cells were plated in 12-well dishes and the indicated peptides were added directly to the medium at a concentration of 5 ug/ml. 18 hours later cells were harvested, followed by qRT-PCR analysis. Expression level of p21, PUMA and Mdm2 was evaluated. FIG. 16 illustrates the relative fold induction of transcription of the tested genes in the various samples relative to their transcription level in non-treated cells. GAPDH mRNA was measured in parallel as a control.
RNA was obtained using Macherey-Nagel NucleoSpin RNA II Kit on cells pellet according to the manufacturer's protocol. Aliquots of 0.4-1 μg were reverse transcribed using Bio-RT 2000 (Bio-Lab) and random hexamer primers. Quantitative real-time polymerase chain reaction (QRT-PCR) was performed on an ABI 7300 instrument (Applied Biosystems) using PerfeCTa SYBR Green FastMix ROX (Quanta). RT-PCR primers used are presented in Table 1 (primers sequences are presented 5′ to 3′).
The tested peptides were further tested for their effect on p53 target gene expression in SKBR3 cells expressing endogenous R175H p53. […] In essence, these cells were plated in 12-well dishes; the indicated peptides were added directly to the medium at a concentration of 5 ug/ml. 18 hours later cells were harvested, followed by qRT-PCR analysis. Expression level of p21, PUMA and Mdm2 was evaluated. Expression of those genes in non-treated cells is considered background and all results were normalized to it, as well as to GAPDH.

Data set [2] can be described thus: Crystal violet viability assay. Format: cell-based. As to conditions: human, shp53 (Mut-p53 knockdown) subline. An excerpt:
FIGS. 15A and 15B are bar graphs illustrating the effect of the various indicated peptides on the viability of breast cancer cells expressing different Mut-p53 isoforms, as determined by crystal violet assay. FIG. 15A: MDA-MB-231 cells expressing Mut-p53 with a mutation at position 280 of the DBD. FIG. 15B: SKBR3 cells expressing Mut-p53 with mutation at position 175 within the DBD. The bar graphs in FIGS. 15A and 15B show for each tested peptide the optical density reads at 595 nm, reflecting the number of cells in the plate after treatment, normalized to the non-treated (NT) samples.
Cells were cultured in 96 wells plates with 2500-4000 cells/well in 0.1 ml and incubated overnight at 37° C. in order to adhere to the plate. Serial dilutions of different peptides (0.5 μg/ml) were added in 0.1 ml aliquots and the plates incubated for additional 48 h at 37° C. Then medium was removed and cell lysis was determined by staining the cells with crystal violet (0.5%) in methanol/water (1:4, v/v), 50 μl each well, for 10 min, followed by 3 washes with PBS. Afterwards, 10% acetic acid (50 μl) was added to each well and shaken for 10 min. Then, automatic plate reading was performed at 595 nm.
Experiments using different cancer cell lines expressing endogenously different p53 mutant isoforms were performed. FIGS. 15A and 15B illustrate two representative experiments performed on MDA-MB-231 (FIG. 15A) and SKBR3 (FIG. 15B) breast cancer cells expressing Mut-p53 with mutations at positions 280 or 175, respectively, within the DNA Binding Domain (DBD). To examine the peptides' specificity for Mut-p53, the control used was such cells with a knockdown of Mut-p53 (shp53).

The next data set deals with T1, Mut-p53 (R175H p53) (Homo sapiens, UniProt P04637, R175H).
T1 construct: a hot spot full length mutant p53 Mut-p53 R175H (R175H p53); expressed in transfected cells; host or cells: H1299 (p53-null) cells stably overexpressing R175H p53; cell extract
Put plainly: p53/DNA binding ELISA kit (R&D), binding to p53-RE DNA. As to conditions: H1299-R175H p53 cell extracts, vs background (NT). The class given is biochemical. An excerpt: A commercial p53/DNA binding kit (R&D) was used, according to manufacturer instructions. Briefly, 96 well plates were coated with anti-p53 antibody overnight. Cell extracts containing p53 were reacted with an oligonucleotide that contains a p53 consensus binding site, labeled with biotin, in the presence or absence (NT) of test peptides. WT p53 is expected to bind this DNA binding site as well as to the antibody coating the test wells of the plate. Excess p53 and oligos are washed away and streptavidin-HRP is used to quantify the amount of oligos in the well, which is proportional to the DNA bound by p53. TMB assay was performed to determine HRP levels (450 nm). The results are presented as relative absorbance (at 450 nm) (Y-Axis) of each tested sample. MCF7 and the H1299-Mut-p53 (ts) A135V cells serve as positive controls for WT p53.
For these experiments, a commercial p53/DNA binding kit of “R&D” (Cat-DYC1355-5 Lot-1273366FA) was used, in accordance with manufacturer guide lines. Briefly, 96 well plates are coated with anti-p53 antibody overnight. Cell extracts containing p53 are reacted with an oligonucleotide that contains a p53 consensus binding site (provided in the kit), labeled with biotin, in the presence or absenc.
e (NT) of test peptides. WT p53 is expected to bind this DNA binding site as well as to the antibody coating the test wells of the plate. Excess p53 and oligos were washed away and streptavidin-HRP was used to quantify the amount of oligos in the well, which is proportional to the DNA bound by p53. TMB assay was performed to determine HRP (ES001-1L-K) levels (450 nm).
To measure the effect of the tested peptides on DNA binding of Mut-p53, a commercial ELISA kit, (R&D Systems DYC1355-5, Lot-1273366FA), was used as a high-throughput assay to quantify p53 activation. This kit uses a 96-well plate format. The kit was used according to manufacturer's instructions. Wells were coated with anti-p53 antibody overnight. Cell extracts containing p53 were reacted with a biotin labeled oligonucleotide containing a p53 consensus binding site (included in the kit). WT p53 is expected to bind this oligo as well as the antibody coating the wells. Excess p53 and oligo were washed away in wash buffer (0.05% Tween 20 in PBS, pH 7.2-7.4; R&D Systems, Catalog #WA126). Then, streptavidin-HRP (R&D Systems, Part 890803, provided in the kit) was added for 15-45 min to quantify the amount of oligo in the well, which is proportional to the DNA bound by p53. If the addition of a peptide to Mut-p53 extracts increases ELISA reading compared to background, this peptide is considered as functionally effective and may be selected for further analysis. […] As with the conformational screening, MCF7 and the H1299-Mut-p53 (ts) A135V cells served as positive controls for WT p53. Extracts were added to the wells coated with αp53-Ab, and after several washing steps, streptavidin-HRP was added for 1 hour, and then plates were washed again and TMB (substrate to HRP) assay was performed.
For orientation: An ELISA detects its analyte on a solid surface through an enzyme-linked reagent.

The target in another data set is T2, R175H p53 (Homo sapiens, UniProt P04637, R175H).
T2 construct: a hot spot full length mutant p53 Mut-p53 R175H (R175H p53); expressed in transfected cells; host or cells: H1299 p53-/- cells, transient transfection
Kind of data set: TK-RGC-luc luciferase reporter assay in H1299 p53−/− cells. As to conditions: peptides added 24 hours after transfection, read at 48 hours. The class given is cell-based. How it is done: (§1) FIG. 12 is a bar graph illustrating the relative luciferase activity (cLuc/gLuc) as measured in the various tested samples. Transient transfection of H1299 p53^−/− cells was performed with plasmids expressing WT p53, R175H p53, R249S p53 or empty vector as control, together with TK-RGC-luc, where luciferase expression is under control of a tandem array of multiple p53-responsive elements. 24 hours after transfection, cells were treated with the test peptides. 48 hours after transfection, a sample of the culture medium was taken for bioluminescence measurements.
(§2) The oligonucleotide (RGC-W) that has the sequence 5′-[…]-3′ (SEQ ID NO:362), and the oligonucleotide mutant RGC oligonucleotide (RGC-M) that has the sequence 5′-[…]-3′ (SEQ ID NO:363), are both derived from Kern et al. (Kern, S. E., et al., Identification of p53 as a sequence-specific DNA-binding protein. Science, 1991. 252(5013): p. 1708-11), and serve as a consensus binding sites for WT p53.
(§3) These motifs were cloned into the KPN and Eco53IK sites in pCLuc Mini-TK 2 Vector (NEB, Cat No. N0324S ). The Luciferase construct was used to assess transcriptional activation of p53 in test cells.
(§4) H1299 p53-null cells were cultured overnight and then transfected with the luciferase constructs using MaxFect Transfection Agent (Mediatech) according to the manufacturer's protocol. Prior to the transfection, cell medium was exchanged to OPTI-MEM.
(§5) The cells were treated with different peptides 24 hours after transfection. After additional 24 hours, growth medium was collected to 96 black plates: 40 μl for Cluc assay, and 20 μl for Gluc assay. Assay was performed using Turner BioSystems Modulus Microplate. Value was calculated by Cluc/gluc/NT (non-treated cells).
(§6) As additional screening strategy used to identify reactivating peptides was performed in vivo and is based on a reporter gene assay. It measures p53 transcriptional activity by quantifying the activity of a reporter gene, placed under the control of a promoter containing 17 repeats of a p53 consensus binding site (RGC). The luciferase assay is performed on living cells and therefore provides an indication on the effect of test peptides on Mut-p53 function in the context of intact cells.
(§7) For the in vivo luciferase based screening, H1299 cells were used. Transient transfection of these p53^−/− cells was performed with vectors expressing WT p53, R175H p53, R249S p53 or empty vector as control (Suad, O., et al., Structural basis of restoring sequence-specific DNA binding and transactivation to mutant p53 by suppressor mutations. J. Mol. Biol., 2009. 385(1): p. 249-65). Cells were also co-transfected with TK-RGC-luc (CAT. No. NEB, N0324S). 24 hours after transfection, cells were treated with the test peptides. […]
(In general: Reporter assays use an easily measured gene product as a stand-in for the process of interest.)

The target in the next data set is T3, R249S p53 (Homo sapiens, UniProt P04637, R249S).
T3 construct: expressed in transfected cells; host or cells: H1299 p53-/- cells, transient transfection
The data set is described as above. The class given is cell-based. The conditions noted are these: peptides added 24 hours after transfection, read at 48 hours. As to the method:
as §1, §2, §3, §4, §5, §6, §7

In data set [3] the test system is H1299 cells stably transfected with Mut-p53 (ts) A135V. Kind of data set: qRT-PCR of p53 target genes (p21, PUMA, Mdm2). The class given is cell-based. The conditions noted are these: 5 ug/ml, 18 hours, 37° C., relative to non-treated cells; positive control (32° C.) 9-11 fold. How it is done:
H1299 cells are p53 null and are widely used for p53 research. H1299 cells stably transfected with Mut-p53 (ts) A135V were used. […] 18 hours later cells were harvested, followed by extraction of RNA, cDNA synthesis and real time PCR analysis. The expression level of 3 representative p53 target genes, p21, PUMA and Mdm2, was examined.
For the in vivo functional screening, several experimental systems were used. One system is based on H1299 cells, which are p53 null and are widely used for p53 research. H1299 cells stably transfected with Mut-p53 (ts) A135V were used. This form of p53 is a temperature sensitive mutant, which has a mutant conformation at 37° C. and a WT conformation at 32° C. […] 18 hours later cells were harvested, followed by extraction of RNA, cDNA synthesis and real time PCR analysis. The expression level of 3 representative p53 target genes was examined; p21, PUMA and Mdm2. Expression of genes in H1299-ts at 37° C. is considered as background level and all results are normalized to it, and also to the GAPDH housekeeping gene. Expression of genes in H1299-ts at 32° C. represents WT p53 conformation and therefore serves as a positive control.
Several tested peptides indeed caused a significant increase in the expression of p21, PUMA and Mdm2. This was the case for pCAP-130, pCAP-135, pCAP-142, pCAP-144 and pCAP-148. […]
On the technique in general: In qPCR the cycle at which signal appears reflects the starting amount.

Where two headings read alike, the source gives them in different places. Where no end group is shown, it is not given here.

As for `COc1ccc(/C=C/c2nc(NCCCN(C)C)c3ccccc3n2)cc1` [CP-31398], the “binding to the p53 DBD by NMR” value at p53 DBD is on record as “failed to detect any binding”.

For the compound IRGRIIRRRRRRRRRR [pCAP-155], the “transactivation of p53 target genes (p21, PUMA, Mdm2)” value (from here on “transactivation of p53 target genes”) in data set [1] is listed as “among the highest transactivation levels”. Further, the cytotoxicity at 48 h in data set [2] (MDA-MB-231 shp53 (Mut-p53 knockdown) breast cancer cells, read-out: reduction in viability, MDA-MB-231 shp53 cells) lay in the range of 30 to 40%; in data set [2] (SKBR3 shp53 (Mut-p53 knockdown) breast cancer cells, read-out: reduction in viability, SKBR3 shp53 cells), 30 to 40%.

With SFILFIRRGRLGRRRRRRRRR [pCAP-144], the “transactivation of p53 target genes” value in data set [1] was “among the highest transactivation levels”.

On to WNHHHSTPHPRRRRRRRRRR [pCAP-148], for which the “transactivation of p53 target genes” value in data set [1] was “among the highest transactivation levels”.

Consider TRILCIVRKKRRQRRRRGDR [pCAP-75], for which the “binding of H1299-R175H p53 extracts to p53-RE DNA” value with Mut-p53 (R175H p53) is on record as “elevate the binding of H1299-R175H p53 extracts to p53-RE DNA”. For the same compound, in the data set with R175H p53, the “transcription from TK-RGC-luc in the presence of R175H p53” value is listed as “induce transcription from TK-RGC-luc”. Further, the “transcription from TK-RGC-luc in the presence of R249S p53” value in the data set with R249S p53 is reported as “induce transcription from TK-RGC-luc”.

Take “GGGGGGGGGRRRRRRR [pCAP-76, negative control peptide]”: the “induction of transcription of p53 target genes p21, PUMA and Mdm2” value in data set [3] is reported as “did not cause induction of p53 targets”.

The values are drawn from US11028127B2, “Peptides capable of reactivating p53 mutants” (Yeda Research and Development Co. Ltd., priority 2013, dated 2021).
